Measurements as given in the kinase profiling compilation of Christmann-Franck et al. (2016).

How the values were obtained:
Experiment in all cases: radiometric filter-binding kinase assay
PAK7 (human) = PAK7 (human) (UniProt Q9P286)
ERBB4 (human) = ERBB4 (human) (UniProt Q15303); conditions: compound 10.0 µM
HIPK2 (human) = HIPK2 (human) (UniProt Q9H2X6)
MAPK1 (human) = MAPK1 (human) (UniProt P28482)
IKBKE (human) = IKBKE (human) (UniProt Q14164); conditions: compound 10.0 µM
BRSK2 (human) = BRSK2 (human) (UniProt Q8IWQ3)
RPS6KA1 KD1 KD2 (human) = RPS6KA1 KD1 KD2 (human) (UniProt Q15418)
EPHB3 (human) = EPHB3 (human) (UniProt P54753); conditions: compound 10.0 µM
DYRK1A (human) = DYRK1A (human) (UniProt Q13627)
CaMK1 (human) = CaMK1 (human) (UniProt Q14012)
[1] = tested on: AKT1 (human), P31749 [S473D]
PLK1 (human) = PLK1 (human) (UniProt P53350)
MAPK13 (human) = MAPK13 (human) (UniProt O15264)
DYRK2 (human) = DYRK2 (human) (UniProt Q92630)
PRKCA (human) = PRKCA (human) (UniProt P17252)
PAK4 (human) = PAK4 (human) (UniProt O96013)
MAP2K6 (human) = MAP2K6 (human) (UniProt P52564); conditions: compound 10.0 µM
MAPK12 (human) = MAPK12 (human) (UniProt P53778)
[2] = tested on: SGK1 (human), O00141 [S422D]
MAPK10 (human) = MAPK10 (human) (UniProt P53779)
AURKA (human) = AURKA (human) (UniProt O14965); conditions: compound 10.0 µM
MAP3K11 (human) = MAP3K11 (human) (UniProt Q16584); conditions: compound 10.0 µM
SYK (human) = SYK (human) (UniProt P43405); conditions: compound 10.0 µM
CHEK2 (human) = CHEK2 (human) (UniProt O96017)
PRKACA (human) = PRKACA (human) (UniProt P17612)
MAPKAPK3 (human) = MAPKAPK3 (human) (UniProt Q16644)
MKNK1 (human) = MKNK1 (human) (UniProt Q9BUB5)
MAPK3 (human) = MAPK3 (human) (UniProt P27361)
NEK2 (human) = NEK2 (human) (UniProt P51955)
MAPK8 (human) = MAPK8 (human) (UniProt P45983)
EPHB2 (human) = EPHB2 (human) (UniProt P29323); conditions: compound 10.0 µM
MST4 (human) = MST4 (human) (UniProt Q9P289); conditions: compound 10.0 µM
MARK2 (human) = MARK2 (human) (UniProt Q7KZI7); conditions: compound 10.0 µM
NUAK1 (human) = NUAK1 (human) (UniProt O60285); conditions: compound 10.0 µM
PRKAA1 or PRKAA2 (rat) = conditions: accession and sequence are those of the human protein

RPS6KA1 KD1 KD2 (human), sequence (Q15418 whole entry, looked up): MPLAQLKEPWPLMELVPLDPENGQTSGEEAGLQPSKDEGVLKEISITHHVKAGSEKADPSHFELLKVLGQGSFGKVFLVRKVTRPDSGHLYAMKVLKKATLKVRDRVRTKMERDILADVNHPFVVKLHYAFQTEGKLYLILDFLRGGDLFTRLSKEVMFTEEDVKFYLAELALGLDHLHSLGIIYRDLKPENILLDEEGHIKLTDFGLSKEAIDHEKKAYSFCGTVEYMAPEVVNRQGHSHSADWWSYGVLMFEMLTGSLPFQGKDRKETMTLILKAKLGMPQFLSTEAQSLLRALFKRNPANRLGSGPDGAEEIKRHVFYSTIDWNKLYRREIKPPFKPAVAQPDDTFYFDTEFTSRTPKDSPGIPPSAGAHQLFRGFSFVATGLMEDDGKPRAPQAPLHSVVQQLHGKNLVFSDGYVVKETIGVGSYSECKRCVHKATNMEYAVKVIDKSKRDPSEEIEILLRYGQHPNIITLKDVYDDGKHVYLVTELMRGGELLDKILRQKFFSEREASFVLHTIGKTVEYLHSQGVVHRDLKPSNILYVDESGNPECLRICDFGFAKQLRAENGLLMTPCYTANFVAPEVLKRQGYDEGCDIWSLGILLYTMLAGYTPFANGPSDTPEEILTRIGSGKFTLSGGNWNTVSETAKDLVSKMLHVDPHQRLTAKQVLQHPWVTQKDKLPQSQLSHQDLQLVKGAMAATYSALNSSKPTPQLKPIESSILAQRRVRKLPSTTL
NEK2 (human), sequence (P51955 whole entry, looked up): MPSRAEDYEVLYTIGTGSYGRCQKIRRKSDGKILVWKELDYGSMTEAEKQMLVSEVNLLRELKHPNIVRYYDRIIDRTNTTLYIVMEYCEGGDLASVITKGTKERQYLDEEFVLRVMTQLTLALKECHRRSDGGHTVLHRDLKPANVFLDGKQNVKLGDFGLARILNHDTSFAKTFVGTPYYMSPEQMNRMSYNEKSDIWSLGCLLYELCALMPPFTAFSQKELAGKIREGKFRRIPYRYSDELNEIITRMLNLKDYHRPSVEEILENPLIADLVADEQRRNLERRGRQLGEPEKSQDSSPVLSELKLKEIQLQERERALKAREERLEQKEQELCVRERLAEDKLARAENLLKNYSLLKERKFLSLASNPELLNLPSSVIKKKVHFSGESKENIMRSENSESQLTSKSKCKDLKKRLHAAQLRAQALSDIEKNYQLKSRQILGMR
CaMK1 (human), sequence (Q14012 whole entry, looked up): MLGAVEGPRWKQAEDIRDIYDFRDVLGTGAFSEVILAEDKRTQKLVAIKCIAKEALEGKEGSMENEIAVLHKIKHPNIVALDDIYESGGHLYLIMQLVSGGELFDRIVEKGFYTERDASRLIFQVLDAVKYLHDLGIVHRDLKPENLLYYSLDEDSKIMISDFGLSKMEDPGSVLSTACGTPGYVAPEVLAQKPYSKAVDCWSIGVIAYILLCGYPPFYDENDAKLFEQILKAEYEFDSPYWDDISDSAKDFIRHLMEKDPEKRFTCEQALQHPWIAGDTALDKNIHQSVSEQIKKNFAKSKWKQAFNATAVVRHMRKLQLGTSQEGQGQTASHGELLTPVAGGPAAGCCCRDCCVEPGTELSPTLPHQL
AKT1 (human), P31749 [S473D], sequence (P31749 whole entry S473D, looked up): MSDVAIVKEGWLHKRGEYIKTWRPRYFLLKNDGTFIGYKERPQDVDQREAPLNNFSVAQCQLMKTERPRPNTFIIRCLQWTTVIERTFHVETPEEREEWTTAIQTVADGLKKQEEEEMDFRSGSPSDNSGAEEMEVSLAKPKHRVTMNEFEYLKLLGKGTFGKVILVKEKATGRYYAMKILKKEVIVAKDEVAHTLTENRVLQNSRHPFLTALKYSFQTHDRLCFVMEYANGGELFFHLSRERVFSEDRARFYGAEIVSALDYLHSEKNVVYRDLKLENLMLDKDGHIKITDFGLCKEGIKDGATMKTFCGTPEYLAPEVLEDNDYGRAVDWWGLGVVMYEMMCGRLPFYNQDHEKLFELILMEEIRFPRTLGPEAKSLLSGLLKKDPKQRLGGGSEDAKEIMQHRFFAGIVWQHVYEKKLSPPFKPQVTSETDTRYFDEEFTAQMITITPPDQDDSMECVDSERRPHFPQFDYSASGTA
MAPK3 (human), sequence (P27361 whole entry, looked up): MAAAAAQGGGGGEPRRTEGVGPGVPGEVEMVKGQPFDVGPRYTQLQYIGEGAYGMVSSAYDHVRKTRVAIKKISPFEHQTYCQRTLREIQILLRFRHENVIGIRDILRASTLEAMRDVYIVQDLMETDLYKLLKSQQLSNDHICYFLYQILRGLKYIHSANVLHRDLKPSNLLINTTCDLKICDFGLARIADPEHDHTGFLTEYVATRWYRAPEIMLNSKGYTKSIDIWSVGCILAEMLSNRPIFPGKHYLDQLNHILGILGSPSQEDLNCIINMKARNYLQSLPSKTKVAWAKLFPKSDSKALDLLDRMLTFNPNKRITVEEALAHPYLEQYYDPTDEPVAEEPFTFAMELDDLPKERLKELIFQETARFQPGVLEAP
MAPK12 (human), sequence (P53778 whole entry, looked up): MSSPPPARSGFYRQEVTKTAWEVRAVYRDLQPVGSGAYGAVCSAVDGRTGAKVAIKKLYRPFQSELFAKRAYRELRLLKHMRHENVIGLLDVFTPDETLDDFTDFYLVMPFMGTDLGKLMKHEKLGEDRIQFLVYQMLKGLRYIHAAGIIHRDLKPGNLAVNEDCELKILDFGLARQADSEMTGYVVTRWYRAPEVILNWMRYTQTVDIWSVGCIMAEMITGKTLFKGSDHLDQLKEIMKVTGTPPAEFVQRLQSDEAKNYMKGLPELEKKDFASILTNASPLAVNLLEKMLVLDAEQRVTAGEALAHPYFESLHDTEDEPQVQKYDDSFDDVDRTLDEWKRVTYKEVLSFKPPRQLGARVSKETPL
PLK1 (human), sequence (P53350 whole entry, looked up): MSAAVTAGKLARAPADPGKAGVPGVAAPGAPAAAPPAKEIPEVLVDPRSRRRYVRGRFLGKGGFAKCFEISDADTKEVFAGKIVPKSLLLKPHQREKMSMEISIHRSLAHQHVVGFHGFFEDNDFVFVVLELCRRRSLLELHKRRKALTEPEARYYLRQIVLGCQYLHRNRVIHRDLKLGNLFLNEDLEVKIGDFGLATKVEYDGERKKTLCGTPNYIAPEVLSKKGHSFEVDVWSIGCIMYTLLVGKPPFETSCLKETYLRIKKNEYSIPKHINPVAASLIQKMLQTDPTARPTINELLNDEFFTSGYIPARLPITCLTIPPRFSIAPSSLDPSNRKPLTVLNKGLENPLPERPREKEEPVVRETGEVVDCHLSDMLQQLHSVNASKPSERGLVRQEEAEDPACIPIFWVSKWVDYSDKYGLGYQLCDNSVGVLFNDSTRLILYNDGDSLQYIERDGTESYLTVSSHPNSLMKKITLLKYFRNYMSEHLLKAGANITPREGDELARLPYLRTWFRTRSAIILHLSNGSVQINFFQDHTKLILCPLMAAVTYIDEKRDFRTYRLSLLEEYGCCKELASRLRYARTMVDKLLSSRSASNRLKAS
MAPK8 (human), sequence (P45983 whole entry, looked up): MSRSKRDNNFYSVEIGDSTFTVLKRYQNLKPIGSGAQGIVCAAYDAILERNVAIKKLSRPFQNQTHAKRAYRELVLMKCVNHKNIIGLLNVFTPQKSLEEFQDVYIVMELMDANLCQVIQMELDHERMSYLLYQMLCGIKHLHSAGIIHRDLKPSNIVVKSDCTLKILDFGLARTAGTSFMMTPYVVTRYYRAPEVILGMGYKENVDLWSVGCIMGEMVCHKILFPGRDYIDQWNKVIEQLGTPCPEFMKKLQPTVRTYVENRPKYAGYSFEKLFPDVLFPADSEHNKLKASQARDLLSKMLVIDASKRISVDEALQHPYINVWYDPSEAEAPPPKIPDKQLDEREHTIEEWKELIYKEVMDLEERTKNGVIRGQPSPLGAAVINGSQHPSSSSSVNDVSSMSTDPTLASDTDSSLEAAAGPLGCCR
SGK1 (human), O00141 [S422D], sequence (O00141 whole entry S422D, looked up): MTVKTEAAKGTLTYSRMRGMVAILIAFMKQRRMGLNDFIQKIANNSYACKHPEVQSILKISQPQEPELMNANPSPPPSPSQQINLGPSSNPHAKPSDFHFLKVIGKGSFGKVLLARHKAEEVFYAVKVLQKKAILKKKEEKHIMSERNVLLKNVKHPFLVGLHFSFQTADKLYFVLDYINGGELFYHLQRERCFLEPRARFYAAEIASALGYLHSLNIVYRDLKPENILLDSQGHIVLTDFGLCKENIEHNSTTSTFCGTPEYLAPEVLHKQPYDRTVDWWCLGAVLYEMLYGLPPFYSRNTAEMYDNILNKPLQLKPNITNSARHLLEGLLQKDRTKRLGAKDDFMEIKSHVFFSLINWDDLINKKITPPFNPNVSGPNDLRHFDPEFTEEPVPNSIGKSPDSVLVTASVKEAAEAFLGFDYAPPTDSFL
MAPK13 (human), sequence (O15264 whole entry, looked up): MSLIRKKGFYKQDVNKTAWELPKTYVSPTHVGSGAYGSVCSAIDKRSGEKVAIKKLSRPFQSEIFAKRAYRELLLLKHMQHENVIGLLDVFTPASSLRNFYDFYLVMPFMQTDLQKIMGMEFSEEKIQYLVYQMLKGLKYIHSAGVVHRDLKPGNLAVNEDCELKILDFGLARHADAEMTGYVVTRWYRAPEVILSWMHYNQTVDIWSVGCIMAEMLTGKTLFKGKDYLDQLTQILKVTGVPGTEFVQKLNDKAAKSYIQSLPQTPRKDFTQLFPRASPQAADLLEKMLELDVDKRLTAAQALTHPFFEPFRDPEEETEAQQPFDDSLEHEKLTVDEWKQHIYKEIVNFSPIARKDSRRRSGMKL
MAPK1 (human), sequence (P28482 whole entry, looked up): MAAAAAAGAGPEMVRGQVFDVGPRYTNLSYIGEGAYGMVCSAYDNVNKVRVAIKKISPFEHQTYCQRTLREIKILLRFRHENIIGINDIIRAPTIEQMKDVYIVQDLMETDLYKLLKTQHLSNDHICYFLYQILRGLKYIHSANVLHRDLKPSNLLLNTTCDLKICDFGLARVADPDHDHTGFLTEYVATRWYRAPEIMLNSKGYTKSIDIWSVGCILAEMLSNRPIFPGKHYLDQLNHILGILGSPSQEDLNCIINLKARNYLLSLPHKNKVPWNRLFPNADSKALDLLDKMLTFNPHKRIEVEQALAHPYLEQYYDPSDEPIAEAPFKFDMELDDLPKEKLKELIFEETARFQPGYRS

Work on `Oc1ccc(/C=C/c2cc(O)cc(O)c2)cc1` yielded a residual activity (PAK7 (human); compound 1.0 µM) of 102%, a residual activity (PAK7 (human); compound 10.0 µM) of 83% and a residual activity (PAK7 (human); compound 50.0 µM) of 75%. The residual activity (ERBB4 (human)) was 59%, the residual activity (HIPK2 (human); compound 1.0 µM) was 60% and the residual activity (HIPK2 (human); compound 10.0 µM) was 30%. It also gave a residual activity (HIPK2 (human); compound 50.0 µM) of 3%, a residual activity (MAPK1 (human); compound 1.0 µM) of 102% and a residual activity (MAPK1 (human); compound 10.0 µM) of 79%. The residual activity (MAPK1 (human); compound 50.0 µM) was 100%, the residual activity (IKBKE (human)) was 59% and the residual activity (BRSK2 (human); compound 1.0 µM) was 54%. For the same molecule, the residual activity (BRSK2 (human); compound 10.0 µM) was 50%, the residual activity (BRSK2 (human); compound 50.0 µM) was 13% and the residual activity (RPS6KA1 KD1 KD2 (human); compound 1.0 µM) was 77%. For the same molecule, the residual activity (RPS6KA1 KD1 KD2 (human); compound 10.0 µM) was 63%, the residual activity (RPS6KA1 KD1 KD2 (human); compound 50.0 µM) was 15% and the residual activity (EPHB3 (human)) was 88%. It also gave a residual activity (DYRK1A (human); compound 1.0 µM) of 94%, a residual activity (DYRK1A (human); compound 10.0 µM) of 61% and a residual activity (DYRK1A (human); compound 50.0 µM) of 17%. For the same molecule, the residual activity (CaMK1 (human); compound 1.0 µM) was 75%, the residual activity (CaMK1 (human); compound 10.0 µM) was 73% and the residual activity (CaMK1 (human); compound 50.0 µM) was 38%. The residual activity ([1]; compound 1.0 µM) was 82%, the residual activity ([1]; compound 10.0 µM) was 89% and the residual activity ([1]; compound 50.0 µM) was 63%. The residual activity (PLK1 (human); compound 1.0 µM) was 90%, the residual activity (PLK1 (human); compound 10.0 µM) was 87% and the residual activity (PLK1 (human); compound 50.0 µM) was 78%. It also gave a residual activity (MAPK13 (human); compound 1.0 µM) of 95%, a residual activity (MAPK13 (human); compound 10.0 µM) of 91% and a residual activity (MAPK13 (human); compound 50.0 µM) of 72%. The residual activity (DYRK2 (human); compound 1.0 µM) was 40%, the residual activity (DYRK2 (human); compound 10.0 µM) was 15% and the residual activity (DYRK2 (human); compound 50.0 µM) was 1%. It also gave a residual activity (PRKCA (human); compound 1.0 µM) of 96%, a residual activity (PRKCA (human); compound 10.0 µM) of 82% and a residual activity (PRKCA (human); compound 50.0 µM) of 58%. For the same molecule, the residual activity (PAK4 (human); compound 1.0 µM) was 85%, the residual activity (PAK4 (human); compound 10.0 µM) was 80% and the residual activity (PAK4 (human); compound 50.0 µM) was 67%. The residual activity (MAP2K6 (human)) was 87%, the residual activity (MAPK12 (human); compound 1.0 µM) was 106% and the residual activity (MAPK12 (human); compound 10.0 µM) was 78%. It also gave a residual activity (MAPK12 (human); compound 50.0 µM) of 65%, a residual activity ([2]; compound 1.0 µM) of 79% and a residual activity ([2]; compound 10.0 µM) of 94%. It also gave a residual activity ([2]; compound 50.0 µM) of 23%, a residual activity (MAPK10 (human); compound 1.0 µM) of 80% and a residual activity (MAPK10 (human); compound 10.0 µM) of 87%. It also gave a residual activity (MAPK10 (human); compound 50.0 µM) of 114%, a residual activity (AURKA (human)) of 100% and a residual activity (MAP3K11 (human)) of 35%. It also gave a residual activity (SYK (human)) of 92%, a residual activity (CHEK2 (human); compound 1.0 µM) of 84% and a residual activity (CHEK2 (human); compound 10.0 µM) of 79%. For the same molecule, the residual activity (CHEK2 (human); compound 50.0 µM) was 14%, the residual activity (PRKACA (human); compound 1.0 µM) was 106% and the residual activity (PRKACA (human); compound 10.0 µM) was 101%. The residual activity (PRKACA (human); compound 50.0 µM) was 91%, the residual activity (MAPKAPK3 (human); compound 1.0 µM) was 121% and the residual activity (MAPKAPK3 (human); compound 10.0 µM) was 64%. The residual activity (MAPKAPK3 (human); compound 50.0 µM) was 97%, the residual activity (MKNK1 (human); compound 1.0 µM) was 102% and the residual activity (MKNK1 (human); compound 10.0 µM) was 66%. For the same molecule, the residual activity (MKNK1 (human); compound 50.0 µM) was 125%, the residual activity (MAPK3 (human); compound 1.0 µM) was 101% and the residual activity (MAPK3 (human); compound 10.0 µM) was 88%. It also gave a residual activity (MAPK3 (human); compound 50.0 µM) of 92%, a residual activity (NEK2 (human); compound 1.0 µM) of 96% and a residual activity (NEK2 (human); compound 10.0 µM) of 91%. For the same molecule, the residual activity (NEK2 (human); compound 50.0 µM) was 83%, the residual activity (MAPK8 (human); compound 1.0 µM) was 96% and the residual activity (MAPK8 (human); compound 10.0 µM) was 108%. For the same molecule, the residual activity (MAPK8 (human); compound 50.0 µM) was 101%, the residual activity (EPHB2 (human)) was 116% and the residual activity (MST4 (human)) was 68%. For the same molecule, the residual activity (MARK2 (human)) was 86%, the residual activity (NUAK1 (human)) was 68% and the residual activity (PRKAA1 or PRKAA2 (rat); compound 1.0 µM) was 103%. The residual activity (PRKAA1 or PRKAA2 (rat); compound 10.0 µM) was 73% and the residual activity (PRKAA1 or PRKAA2 (rat); compound 50.0 µM) was 16%.
